Each compound was assayed against T1, hQ23 (HEK-293 cell line stably transfected with one of the members of the KCNQ family) (Homo sapiens, UniProt O43525+O43526) (assay: Thallium flux assay for KCNQ channel blockers (FLIPR, BTC dye)). Settings: Table 2; thallium flux, HEK-293.
T1 construct: expressed in transfected cells; host or cells: HEK-293, stably transfected
Assay type: cell-based
Experimental: Thallium Flux Assay for KCNQ channel blockers. Approximately 20,000 cells/well of an HEK-293 cell line stably transfected with one of the members of the KCNQ family were plated into clear-bottom, black-walled, poly-D-lysine coated, 384 well assay plates in 20 μl/well of low chloride plating medium. Low chloride plating medium was composed of the following: sodium gluconate, 109 mM; potassium gluconate, 5.4 mM; hemi-calcium gluconate, 3.6 mM; magnesium sulfate, 0.8 mM; sodium bicarbonate, 26.2 mM; sodium phosphate monobasic, 1.2 mM; glutamine, 2 mM; glucose, 5 mM; HEPES (pH 7.3) 10 mM, 10× concentration of vitamins (Gibco/LifeTechnologies catalog #11120-052) and 1× concentration of amino acids (Gibco/LifeTechnologies catalog #11130-051).
Following overnight incubation in a 5% CO2 incubator at 37° C., the cells in the plates were loaded with 20 μl/well of a dye loading solution containing the acetomethoxy ester of the thallium-sensitive fluorescent dye BTC, BTC-AM (2 μM) and pluronic acid (0.02% w/v) in chloride free assay buffer. Chloride free assay buffer was composed of the following: sodium gluconate, 140 mM; potassium gluconate, 2.5 mM; hemi-calcium gluconate, 6 mM; hemi-magnesium gluconate, 2 mM; glucose, 5 mM; HEPES (pH 7.3), 10 mM.
Following incubation in the dye loading solution for from 45–90 min at room temperature, the dye loading solution was removed by aspiration and replaced with 40 μl/well of chloride free assay buffer.
Prior to addition to cell plates, test compound and standard compounds were dissolved in DMSO to 3 mM concentration. Compounds were then diluted from the 3 mM stock to 100-fold over the final assay concentration in DMSO. Finally, compounds in DMSO were diluted from 100-fold over the final assay concentration to 5-fold over the final assay concentration in chloride free assay buffer.
Ten μl/well of compounds at 5-fold over the final assay concentration were then added to the cell plates. This represents a 1:5 dilution, yielding the final test concentration. The wells used for test compounds were A1–P20. Wells A21–P22 contained a standard ‘blocker’ and a fully efficacious concentration (positive control). Wells A23–P24 contained chloride free assay buffer containing 1% DMSO (negative control).
Following addition of test compounds, the plates were loaded onto the Molecular Devices FLIPR. The 488 nm line of the argon laser was used to excite the BTC and the emission filter was a 540(+/−30) nm. Images were collected at 1 Hz. Ten seconds of baseline were collected and then the FLIPR was used to add 13 μl/well of a stimulus buffer composed of Tl2SO4, 25 mM; sodium gluconate, 30 mM; potassium sulfate, 50 mM; hemi-calcium gluconate, 6 mM; hemi-magnesium gluconate, 2 mM; glucose, 5 mM; HEPES (pH 7.3), 10 mM in chloride free assay buffer. Images were collected for an additional 60 seconds.
For data analysis, the amplitude of the average of the negative controls was subtracted from all wells. The amplitudes of the test compounds were then compared to the value of four standard deviations of the negative control wells. The lowest concentration of a test compound sufficient to generate a signal amplitude greater than or equal to four standard deviations from the amplitude of the negative controls was defined as the minimal active concentration.
For generating IC50 values, compounds were serially diluted in 1:3 volume increments to produce a 10 point concentration series. IC50 values were calculated by fitting the resulting amplitudes to a single-site logistic equation. IC50 was defined as the concentration of test compound required to yield 50% of the response of the positive control.

T1 sequence (O43526 whole entry): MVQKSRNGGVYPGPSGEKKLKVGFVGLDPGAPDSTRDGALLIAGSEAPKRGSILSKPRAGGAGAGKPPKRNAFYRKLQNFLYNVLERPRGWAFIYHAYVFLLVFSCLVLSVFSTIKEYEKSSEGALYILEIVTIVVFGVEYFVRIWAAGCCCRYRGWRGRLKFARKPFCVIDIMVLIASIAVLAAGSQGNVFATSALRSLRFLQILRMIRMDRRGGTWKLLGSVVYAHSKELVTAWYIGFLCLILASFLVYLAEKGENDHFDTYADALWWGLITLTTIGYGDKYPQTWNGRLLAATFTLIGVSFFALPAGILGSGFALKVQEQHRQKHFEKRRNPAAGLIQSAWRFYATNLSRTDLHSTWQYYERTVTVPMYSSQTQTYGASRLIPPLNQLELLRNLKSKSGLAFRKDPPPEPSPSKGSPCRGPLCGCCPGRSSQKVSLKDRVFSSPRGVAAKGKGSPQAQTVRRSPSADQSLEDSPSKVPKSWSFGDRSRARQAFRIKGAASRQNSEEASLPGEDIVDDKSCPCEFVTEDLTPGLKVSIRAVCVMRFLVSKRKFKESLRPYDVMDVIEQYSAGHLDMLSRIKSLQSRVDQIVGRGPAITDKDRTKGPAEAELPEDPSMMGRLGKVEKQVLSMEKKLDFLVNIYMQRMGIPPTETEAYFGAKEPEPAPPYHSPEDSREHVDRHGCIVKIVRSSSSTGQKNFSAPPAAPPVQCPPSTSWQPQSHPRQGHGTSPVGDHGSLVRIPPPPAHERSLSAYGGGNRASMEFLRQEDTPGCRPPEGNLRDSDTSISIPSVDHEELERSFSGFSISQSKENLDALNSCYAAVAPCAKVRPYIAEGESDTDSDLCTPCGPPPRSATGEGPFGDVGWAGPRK
T1 sequence (O43525 whole entry): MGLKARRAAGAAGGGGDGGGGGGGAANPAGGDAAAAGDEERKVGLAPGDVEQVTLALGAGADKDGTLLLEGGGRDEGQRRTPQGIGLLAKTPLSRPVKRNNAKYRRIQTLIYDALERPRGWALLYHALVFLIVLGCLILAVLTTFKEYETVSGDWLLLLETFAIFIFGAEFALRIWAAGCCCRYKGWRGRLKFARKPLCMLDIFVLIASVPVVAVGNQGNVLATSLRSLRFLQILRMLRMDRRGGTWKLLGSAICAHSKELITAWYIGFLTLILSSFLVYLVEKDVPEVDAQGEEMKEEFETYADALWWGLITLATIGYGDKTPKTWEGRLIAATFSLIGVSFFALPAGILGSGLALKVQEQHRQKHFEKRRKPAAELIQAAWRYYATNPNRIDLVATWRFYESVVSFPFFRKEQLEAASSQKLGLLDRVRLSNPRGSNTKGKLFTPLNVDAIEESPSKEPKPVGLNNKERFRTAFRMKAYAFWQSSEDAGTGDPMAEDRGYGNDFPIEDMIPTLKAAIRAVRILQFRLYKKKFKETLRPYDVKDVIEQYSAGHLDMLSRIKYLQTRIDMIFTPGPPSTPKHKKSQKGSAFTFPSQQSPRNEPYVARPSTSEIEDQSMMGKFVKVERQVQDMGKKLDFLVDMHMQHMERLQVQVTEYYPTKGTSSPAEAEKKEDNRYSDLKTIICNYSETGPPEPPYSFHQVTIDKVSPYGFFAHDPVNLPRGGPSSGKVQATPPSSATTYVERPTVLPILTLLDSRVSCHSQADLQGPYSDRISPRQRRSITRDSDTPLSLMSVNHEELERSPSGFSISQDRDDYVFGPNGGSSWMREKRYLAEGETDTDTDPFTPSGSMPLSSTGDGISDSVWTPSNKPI

Compound | EC50 [nM]
CC1CCCN(c2ncc(C(=O)N3CCc4ccccc4C3)c(C3(c4ccccc4)CC3)n2)C1 (stereo not drawn) [Example 25, isoquinoline, 1,2,3,4-tetrahydro-2-[[2-(3-methyl-1-piperidinyl)-4-(1-phenylcyclopropyl)-5-pyrimidinyl]carbonyl]-] | 945
CC1CCN(c2ncc(C(=O)N3CCc4ccccc4C3)c(C3(c4ccccc4)CC3)n2)CC1 [Example 26, isoquinoline, 1,2,3,4-tetrahydro-2-[[2-(4-methyl-1-piperidinyl)-4-(1-phenylcyclopropyl)-5-pyrimidinyl]carbonyl]-] | 546
CCN(C(=O)c1cnc(N2CCN(C)CC2)nc1C1(c2ccccc2)CC1)C1CCCCC1 [Example 27, 5-pyrimidinecarboxamide, N-cyclohexyl-N-ethyl-2-(4-methyl-1-piperazinyl)-4-(1-phenylcyclopropyl)-] | 470
CN(C)CCNc1ncc(C(=O)N(C)CCc2ccccc2)c(C2(c3ccccc3)CC2)n1 [Example 28, 5-pyrimidinecarboxamide, 2-[[2-(dimethylamino)ethyl]amino]-N-methyl-4-(1-phenylcyclopropyl)-N-(2-phenylethyl)-] | 301
CCN(Cc1ccccc1)C(=O)c1cnc(NC2CCC(C)CC2)nc1C1(c2ccccc2)CC1 (stereo not drawn) [Example 29, 5-pyrimidinecarboxamide, N-ethyl-2-[(4-methylcyclohexyl)amino]-4-(1-phenylcyclopropyl)-N-(phenylmethyl)-] | 607
CCN(Cc1ccccc1)C(=O)c1cnc(N2CCCC(C)C2)nc1C1(c2ccccc2)CC1 (stereo not drawn) [Example 30, 5-pyrimidinecarboxamide, N-ethyl-2-(3-methyl-1-piperidinyl)-4-(1-phenylcyclopropyl)-N-(phenylmethyl)-] | 634
CCN(Cc1ccccc1)C(=O)c1cnc(N2CCC(C)CC2)nc1C1(c2ccccc2)CC1 [Example 31, 5-pyrimidinecarboxamide, N-ethyl-2-(4-methyl-1-piperidinyl)-4-(1-phenylcyclopropyl)-N-(phenylmethyl)-] | 475
O=C(NCc1ccc2c(c1)OCO2)c1cnc(N2CCCC2)nc1C1(c2ccccc2)CC1 [Example 32, 5-pyrimidinecarboxamide, N-(1,3-benzodioxol-5-ylmethyl)-4-(1-phenylcyclopropyl)-2-(1-pyrrolidinyl)-] | 413
CC1CCC(Nc2ncc(C(=O)N[C@H](C)c3cccc4ccccc34)c(C3(c4ccccc4)CC3)n2)CC1 (stereo partly drawn) [Example 33, 5-pyrimidinecarboxamide, 2-[(4-methylcyclohexyl)amino]-N-[(1R)-1-(1-naphthalenyl)ethyl]-4-(1-phenylcyclopropyl)-] | 293
CC1CCCN(c2ncc(C(=O)N[C@H](C)c3cccc4ccccc34)c(C3(c4ccccc4)CC3)n2)C1 (stereo partly drawn) [Example 34, 5-pyrimidinecarboxamide, 2-(3-methyl-1-piperidinyl)-N-[(1R)-1-(1-naphthalenyl)ethyl]-4-(1-phenylcyclopropyl)-] | 107
CC1CCN(c2ncc(C(=O)N[C@H](C)c3cccc4ccccc34)c(C3(c4ccccc4)CC3)n2)CC1 [Example 35, 5-pyrimidinecarboxamide, 2-(4-methyl-1-piperidinyl)-N-[(1R)-1-(1-naphthalenyl)ethyl]-4-(1-phenylcyclopropyl)-] | 212
CC1CCC(Nc2ncc(C(=O)NCc3cccc4ccccc34)c(C3(c4ccccc4)CC3)n2)CC1 (stereo not drawn) [Example 36, 5-pyrimidinecarboxamide, 2-[(4-methylcyclohexyl)amino]-N-(1-naphthalenylmethyl)-4-(1-phenylcyclopropyl)-] | 586
CC1CCCN(c2ncc(C(=O)NCc3cccc4ccccc34)c(C3(c4ccccc4)CC3)n2)C1 (stereo not drawn) [Example 37, 5-pyrimidinecarboxamide, 2-(3-methyl-1-piperidinyl)-N-(1-naphthalenylmethyl)-4-(1-phenylcyclopropyl)-] | 214
CC1CCN(c2ncc(C(=O)NCc3cccc4ccccc34)c(C3(c4ccccc4)CC3)n2)CC1 [Example 38, 5-pyrimidinecarboxamide, 2-(4-methyl-1-piperidinyl)-N-(1-naphthalenylmethyl)-4-(1-phenylcyclopropyl)-] | 381
CC1CCC(Nc2ncc(C(=O)NCc3ccc(Cl)cc3Cl)c(C3(c4ccccc4)CC3)n2)CC1 (stereo not drawn) [Example 39, 5-pyrimidinecarboxamide, N-[(2,4-dichlorophenyl)methyl]-2-[(4-methylcyclohexyl)amino]-4-(1-phenylcyclopropyl)-] | 551

Continued, values first:

EC50 [nM] | Compound
326 | CC1CCCN(c2ncc(C(=O)NCc3ccc(Cl)cc3Cl)c(C3(c4ccccc4)CC3)n2)C1 (stereo not drawn) [Example 40, 5-pyrimidinecarboxamide, N-[(2,4-dichlorophenyl)methyl]-2-(3-methyl-1-piperidinyl)-4-(1-phenylcyclopropyl)-]
220 | CC1CCN(c2ncc(C(=O)NCc3ccc(Cl)cc3Cl)c(C3(c4ccccc4)CC3)n2)CC1 [Example 41, 5-pyrimidinecarboxamide, N-[(2,4-dichlorophenyl)methyl]-2-(4-methyl-1-piperidinyl)-4-(1-phenylcyclopropyl)-]
413 | CC1CCC(Nc2ncc(C(=O)NCc3ccc(F)cc3F)c(C3(c4ccccc4)CC3)n2)CC1 (stereo not drawn) [Example 42, 5-pyrimidinecarboxamide, N-[(2,4-difluorophenyl)methyl]-2-[(4-methylcyclohexyl)amino]-4-(1-phenylcyclopropyl)-]
919 | CC1CCN(c2ncc(C(=O)NCc3ccc(F)cc3F)c(C3(c4ccccc4)CC3)n2)CC1 [Example 43, 5-pyrimidinecarboxamide, N-[(2,4-difluorophenyl)methyl]-2-(4-methyl-1-piperidinyl)-4-(1-phenylcyclopropyl)-]
44 | CC1CCC(Nc2ncc(C(=O)NCc3cc(F)cc(C(F)(F)F)c3)c(C3(c4ccccc4)CC3)n2)CC1 (stereo not drawn) [Example 44, 5-pyrimidinecarboxamide, N-[[3-fluoro-5-(trifluoromethyl)phenyl]methyl]-2-[(4-methylcyclohexyl)amino]-4-(1-phenylcyclopropyl)-]
209 | O=C(NCc1cc(F)cc(C(F)(F)F)c1)c1cnc(N2CCCC2)nc1C1(c2ccccc2)CC1 [Example 45, 5-pyrimidinecarboxamide, N-[[3-fluoro-5-(trifluoromethyl)phenyl]methyl]-4-(1-phenylcyclopropyl)-2-(1-pyrrolidinyl)-]
384 | CN1CCN(c2ncc(C(=O)NCc3cc(F)cc(C(F)(F)F)c3)c(C3(c4ccccc4)CC3)n2)CC1 [Example 46, 5-pyrimidinecarboxamide, N-[[3-fluoro-5-(trifluoromethyl)phenyl]methyl]-2-(4-methyl-1-piperazinyl)-4-(1-phenylcyclopropyl)-]
41 | CC1CCCN(c2ncc(C(=O)NCc3cc(F)cc(C(F)(F)F)c3)c(C3(c4ccccc4)CC3)n2)C1 (stereo not drawn) [Example 47, 5-pyrimidinecarboxamide, N-[[3-fluoro-5-(trifluoromethyl)phenyl]methyl]-2-(3-methyl-1-piperidinyl)-4-(1-phenylcyclopropyl)-]

Same assay, conditions: hQ23 cells, thallium flux

EC50 [nM] | Compound
39 | 5-pyrimidinecarboxamide, 4-[1-(4-fluorophenyl)cyclopentyl]-N,N-bis(1-methylethyl)-2-(3-methyl-1-piperidinyl)- [Example 224]
